Patent US11008572B2, “Methods and compositions for modulating splicing” (SKYHAWK THERAPEUTICS, INC., priority 2017, dated 2021)
Read-outs that look alike come from different tables or passages of the source.

How the values were obtained:
Format in all cases: cell-based
[1] = tested on: IKBKAP^FL mRNA; assay: IKBKAP splicing assay, qPCR; conditions: 24 hours of incubation
Method: (§1) Various cells lines were treated with the SMSMs described herein. RNA was then isolated, cDNA synthesized, qPCR performed and the levels of IKBKAP targets of the SMSMs were determined.
(§2) On the day of the experiment, a 96-well plate was seeded with the cell lines of interest. The cells were diluted with full growth media to a concentration of 2.0×10^5 cells/mL and 100 μL of cells were added to each well (20,000 cells per well). The cells were treated with a compound immediately after plating.
(§3) The compounds were then added to the cell plate using the HP compound dispenser. In the initial experiment, a top concentration of 10 μM and an 8 point 4-fold dilution scheme was used. The stock compounds were made at a concentration of 5 mM, and the DMSO concentration was set to 0.2%. DMSO was used to normalize all the compound-containing wells and the untreated cells.
(§4) The treated cells were incubated at 37° C. in a 5% CO2 incubator for the desired amount of time. Plates were placed in a plastic bag with a wet paper towel to prevent evaporation.
(§5) RNA was isolated using the Cells to CT kit (ThermoFisher, AM1728). The cells were washed once with 100 μL cold PBS. 50 μL of lysis buffer was added to each well/tube (49.5 μL lysis buffer+0.5 μL DNase I per well/tube). The lysis reaction was mixed and incubated at room temperature for 5 minutes. 5 μL of stop solution was added directly into each cell lysis reaction and mixed by pipetting up and down 5 times. The plates/tubes were incubated at room temperature for 2 minutes then placed on ice if the cDNA synthesis was to be performed immediately. Otherwise, the plates/tubes were stored at −80° C.
(§6) cDNA synthesis reactions were then performed. 40 μL RT master mix was added to PCR tubes or plate wells. 10 μL of RNA was added to each tube/well. The RT thermal cycler program was then run and tubes or plate wells were incubated at 37° C. for 1 hour, then at 95° C. for 5 minutes to deactivate the enzyme.
(§7) The qPCR was performed using a QuantStudio 6 instrument (ThermoFisher) and the following cycling conditions and according to the tables below. All samples and standards were analyzed in triplicate. Cycle 1: 2 minutes at 50° C. Cycle 2: 10 minutes at 95° C. Cycle 3 (repeat 40 times): 15 seconds at 95° C., 1 minute at 60° C.
(§8) The determined IKBKAP^FL and […] isoform quantities were then used to determine the IKBKAP^FL: IKBKAP^Δ20 ratio at increasing SMSM compound concentrations. The PPIA quantities were used in the normalization to account of cell proliferation effects of the compounds.
(§9) An assay to measure the IKBKAP^FL mRNA and IKBKAP^Δ20 mRNA simultaneously in cell wells was performed. The RNA values were measured relative to DMSO control and also included a housekeeping gene, PPIA to ensure data was consistent. The mRNA values were measured after 24 hours of incubation with the SMSM compounds.

[2] = tested on: IKBKAP^Δ20 mRNA; assay: IKBKAP splicing assay, qPCR; conditions: 24 hours of incubation
Method: as §1, §2, §3, §4, §5, §6, §7, §8, §9

[3] = tested on: FOXM1^A2 mRNA and FOXM1^BC mRNA; assay: Splicing assay (FOXM1), qPCR of isoform mRNAs
Method in brief: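 RT-qPCR read-out after 24 h compound exposure at 37° C., 0.2% DMSO, top dose 10 μM with 4-fold 8-point dilutions, 20,000 cells per well. Copy numbers from plasmid standard curves, PPIA-normalized, expressed as isoform ratio relative to DMSO.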

[4] = tested on: A-673 cells; assay: Cell viability, crystal violet staining; conditions: Homo sapiens, A673, cell viability
Method in brief: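 Readout is absorbance at 570 nm of crystal violet, taken up in 0.1 M sodium citrate in 50% ethanol after staining with 0.5% dye in 25% methanol. Plates held 5×10^3 cells per well, and compounds were added one day after seeding for 72 hours. Data are relative to vehicle, mean±SE.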

[5] = Splicing (IC50), Example 22; conditions: spliced gene and cells not stated
Method: A-673 cell viability […], splicing (IC50) and brain AUC/Plasma AUC of SMSMs were determined. As shown in the tables below SMSMs had high CNS exposure.

[6] = FoxM1 BC mRNA decrease (exon included), read-out: Splice IC50 (nM) FoxM1 BC mRNA decrease (exon included)
[7] = read-out: Splice EC50 (nM) FoxM1 A mRNA increase (exon excluded)
[8] = read-out: A-673 IC50 (nM) Cell viability
[9] = 24 h, FoxM1 BC mRNA decrease (exon included), 0.1-1000 nM, 24 hours, read-out: Splice IC50 (nM), FoxM1 BC mRNA decrease (exon included)
[10] = FoxM1 A mRNA increase (exon excluded), 0.1-1000 nM, 24 hours, read-out: Splice EC50 (nM), FoxM1 A mRNA increase (exon excluded)
[11] = read-out: A-673 IC50 (nM), Cell viability

| Compound | EC50 [1] [µM] | IC50 [2] [µM] | IC50 [3, 9] [nM] | EC50 [3, 10] [nM] | IC50 [4, 11] [nM] | further results |
| --- | --- | --- | --- | --- | --- | --- |
| C[C@]12CC[C@](C)(C[C@@H](Oc3ccc(-c4ccc(-c5cn[nH]c5)cc4O)nn3)C1)N2 [compound 152, 2-(6-(((1R,3s,5S)-1,5-dimethyl-8-azabicyclo[3.2.1]octan-3-yl)oxy)pyridazin-3-yl)-5-(1H-pyrazol-4-yl)phenol] | 0.351 to 1 | > 1 | – | – | – | IC50 [3, 6]: 10 to 100 nM; EC50 [3, 7]: 10 to 100 nM; IC50 [4, 8]: 101 to 250 nM |
| CN(c1ccc(-c2ccc(-c3cn[nH]c3)cc2O)nn1)[C@@H]1C[C@H]2COC[C@@H](C1)N2 [compound 154, 2-(6-(((1R,5S,7r)-3-oxa-9-azabicyclo[3.3.1]nonan-7-yl)(methyl)amino)pyridazin-3-yl)-5-(1H-pyrazol-4-yl)phenol] | 0.351 to 1 | – | – | – | – | IC50 [3, 6]: 10 to 100 nM; EC50 [3, 7]: 10 to 100 nM; IC50 [4, 8]: 10 to 100 nM |
| CN(c1ccc(-c2cc(F)c(-c3cn[nH]c3)cc2O)nn1)[C@@H]1C[C@H]2CC[C@@H](C1)N2 [compound 161, 2-(6-(((1R,3s,5S)-8-azabicyclo[3.2.1]octan-3-yl)(methyl)amino)pyridazin-3-yl)-4-fluoro-5-(1H-pyrazol-4-yl)phenol] | < 0.1 | < 0.2 | – | – | – | IC50 [3, 6]: < 10 nM; EC50 [3, 7]: < 10 nM; IC50 [4, 8]: < 10 nM |
| CN(c1ccc(-c2cc3cccnc3cc2O)nn1)[C@@H]1C[C@H]2CC[C@@H](C1)N2 [compound 162, 6-(6-(((1R,3s,5S)-8-azabicyclo[3.2.1]octan-3-yl)(methyl)amino)pyridazin-3-yl)quinolin-7-ol] | – | 0.201 to 1 | – | – | – | IC50 [4, 8]: 251 to 500 nM |
| CN(c1ccc(-c2ccc(-n3ccnc3)cc2O)nn1)[C@@H]1C[C@H]2CC[C@@H](C1)N2 [compound 217, 2-(6-(((1R,3s,5S)-8-azabicyclo[3.2.1]octan-3-yl)(methyl)amino)pyridazin-3-yl)-5-(1H-imidazol-1-yl)phenol] | 0.351 to 1 | 0.201 to 1 | 10 to 100 | < 10 | 10 to 100 | – |
| Cc1cn(-c2ccc(-c3ccc(N(C)[C@@H]4C[C@H]5CC[C@@H](C4)N5)nn3)c(O)c2)cn1 [compound 218, 2-(6-(((1R,3s,5S)-8-azabicyclo[3.2.1]octan-3-yl)(methyl)amino)pyridazin-3-yl)-5-(4-methyl-1H-imidazol-1-yl)phenol] | 0.351 to 1 | > 1 | < 10 | < 10 | 10 to 100 | – |
| CN(c1ccc(-c2ccc(-n3nccn3)cc2O)nn1)[C@@H]1C[C@H]2CC[C@@H](C1)N2 [compound 223, 2-(6-(((1R,3s,5S)-8-azabicyclo[3.2.1]octan-3-yl)(methyl)amino)pyridazin-3-yl)-5-(2H-1,2,3-triazol-2-yl)phenol] | 0.101 to 0.35 | > 1 | < 10 | < 10 | 10 to 100 | IC50 ([3]; Homo sapiens, A-375, 24 h, A-375 cells, 24 hours, table does not say EC50 or IC50, read-out: FOXM1): 11 to 100 nM; IC50 ([3]; Homo sapiens, BXPC-3, 24 h, BxPC-3 cells, 24 hours, table does not say EC50 or IC50, read-out: FOXM1): 200 to 500 nM; IC50 ([3]; Homo sapiens, DU-145, 24 h, DU-145 cells, 24 hours, table does not say EC50 or IC50, read-out: FOXM1): 200 to 500 nM; IC50 ([3]; Homo sapiens, Daoy, 24 h, Daoy cells, 24 hours, table does not say EC50 or IC50, read-out: FOXM1): 101 to 200 nM; IC50 ([3]; Homo sapiens, G-401, 24 h, G-401 cells, 24 hours, table does not say EC50 or IC50, read-out: FOXM1): 11 to 100 nM; IC50 ([3]; Homo sapiens, SH-SY5Y, 24 h, SH-SY5Y cells, 24 hours, table does not say EC50 or IC50, read-out: FOXM1): 11 to 100 nM; IC50 ([3]; Homo sapiens, TT, 24 h, T.T cells, 24 hours, table does not say EC50 or IC50, read-out: FOXM1): 101 to 200 nM |
| Cc1ncc(-c2ccc(-c3ccc(N(C)[C@@H]4C[C@H]5CC[C@@H](C4)N5)nn3)c(O)c2)o1 [compound 228, 2-(6-(((1R,3s,5S)-8-azabicyclo[3.2.1]octan-3-yl)(methyl)amino)pyridazin-3-yl)-5-(2-methyloxazol-5-yl)phenol] | 0.351 to 1 | > 1 | 10 to 100 | < 10 | 10 to 100 | – |
| CN(c1ccc(-c2ccc(-c3cnn(C)c(=O)c3)cc2O)nn1)[C@@H]1C[C@H]2CC[C@@H](C1)N2 [compound 238, 5-(4-(6-(((1R,3s,5S)-8-azabicyclo[3.2.1]octan-3-yl)(methyl)amino)pyridazin-3-yl)-3-hydroxyphenyl)-2-methylpyridazin-3(2H)-one] | 0.101 to 0.35 | 0.201 to 1 | 10 to 100 | < 10 | 10 to 100 | – |
| CN(c1ccc(-c2ccc(-c3ccn(C)c(=O)c3)cc2O)nn1)[C@@H]1C[C@H]2CC[C@@H](C1)N2 [compound 240, 4-(4-(6-(((1R,3s,5S)-8-azabicyclo[3.2.1]octan-3-yl)(methyl)amino)pyridazin-3-yl)-3-hydroxyphenyl)-1-methylpyridin-2(1H)-one] | 0.101 to 0.35 | 0.201 to 1 | < 10 | < 10 | 10 to 100 | – |
| Cc1nnnn1-c1ccc(-c2ccc(O[C@@H]3C[C@H]4CC[C@@H](C3)N4)nn2)c(O)c1 [compound 257, 2-(6-(((1R,3s,5S)-8-azabicyclo[3.2.1]octan-3-yl)oxy)pyridazin-3-yl)-5-(5-methyl-1H-tetrazol-1-yl)phenol] | – | – | – | – | > 1000 | IC50 [5]: 0.121 µM |
| CN(c1ccc(-c2ccc(-c3cc(=O)n(C)cn3)cc2O)nn1)[C@H]1C[C@]2(C)CCC[C@](C)(C1)N2 [compound 266, 6-(4-(6-(((1R,3s,5S)-1,5-dimethyl-9-azabicyclo[3.3.1]nonan-3-yl)(methyl)amino)pyridazin-3-yl)-3-hydroxyphenyl)-3-methylpyrimidin-4(3H)-one] | < 0.1 | < 0.2 | – | – | 10 to 100 | – |
| Oc1cc(-c2cn[nH]c2)c(F)cc1-c1ccc(O[C@@H]2C[C@H]3CCC[C@@H](C2)N3)nn1 [compound 278, 2-(6-(((1R,3s,5S)-9-azabicyclo[3.3.1]nonan-3-yl)oxy)pyridazin-3-yl)-4-fluoro-5-(1H-pyrazol-4-yl)phenol] | 0.101 to 0.35 | < 0.2 | – | – | 10 to 100 | – |
| [2H]C([2H])([2H])n1ncc(-c2ccc(-c3ccc(N(C)[C@@H]4C[C@H]5CC[C@@H](C4)N5)nn3)c(O)c2)cc1=O [compound 282, 5-(4-(6-(((1R,3s,5S)-8-azabicyclo[3.2.1]octan-3-yl)(methyl)amino)pyridazin-3-yl)-3-hydroxyphenyl)-2-(methyl-d3)pyridazin-3(2H)-one] | 0.101 to 0.35 | 0.201 to 1 | 10 to 100 | < 10 | 10 to 100 | – |
| CN(c1ccc(-c2ccc(-c3cn[nH]c3)cc2O)nn1)C1[C@H]2CN(C(=O)CCN)C[C@@H]12 (stereo partly drawn) [compound 315, 3-amino-1-((1R,5S)-6-((6-(2-hydroxy-4-(1H-pyrazol-4-yl)phenyl)pyridazin-3-yl)(methyl)amino)-3-azabicyclo[3.1.0]hexan-3-yl)propan-1-one] | > 1 | > 1 | – | – | – | – |
